The values that follow come from patent publication US9296758B2, “2-quinolinyl-acetic acid derivatives as HIV antiviral compounds” (GILEAD SCIENCES, INC., priority 2010, dated 2016).

Each structure is given as a SMILES string.

In this experiment the test system is HIV-IIIb. The experiment can be described thus: Test A: Antiviral Assays in MT4 Cells. The experiment is classed as cell-based. The following applies: MT-4 cells infected with HIV-IIIb (0.004 m.o.i.), 5 days of incubation, CellTiter-Glo chemiluminescence readout. The method in brief:
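MT-4 cells pre-infected with HIV-IIIb (0.004 m.o.i.) or mock-infected, 2000 cells per well, were exposed to 10 three-fold serial compound dilutions in quadruplicate in RPMI 1640 with 10% FBS. After 5 days at 37° C, cell viability read by CellTiter-Glo chemiluminescence.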

Where [1] appears, read: Human immunodeficiency virus 1, IIIB, MT4, 120 h.

Turning to `Cc1cc2c(ccc(=O)n2C)c(-c2ccc(Cl)cc2)c1[C@H](OC(C)(C)C)C(=O)O` [Compound 67, (S)-2-tert-butoxy-2-(5-(4-chlorophenyl)-1,7-dimethyl-2-oxo-1,2-dihydroquinolin-6-yl)acetic acid], the concentration giving a half-maximal response (EC50) under setting [1] was 273 nM.

Under setting [1], `CCN(C)c1ccc2c(-c3ccc4c5c(ccnc35)CCO4)c([C@H](OC(C)(C)C)C(=O)O)c(C)cc2n1` [Compound 93, (S)-2-tert-Butoxy-2-((R)-5-(2,3-dihydropyrano[4,3,2-de]quinolin-7-yl)-2-(ethyl(methyl)amino)-7-methylquinolin-6-yl)acetic acid] came in with a 50% effective concentration (EC50) of 94 nM.

Turning to `Cc1cccnc1-c1ccc2c(-c3ccc4c5c(ccnc35)CCO4)c([C@H](OC(C)(C)C)C(=O)O)c(C)cc2n1` [Compound 106, (S)-2-tert-Butoxy-2-((R)-5-(2,3-dihydropyrano[4,3,2-de]quinolin-7-yl)-7-methyl-2-(3-methylpyridin-2-yl)quinolin-6-yl)acetic acid], a half-maximal response (EC50) required 25 nM.

`Cc1cc2nc(-c3cn(C)cn3)ccc2c(-c2ccc(Cl)cc2)c1[C@H](OC(C)(C)C)C(=O)O` [Compound 86, (S)-2-tert-butoxy-2-(5-(4-chlorophenyl)-7-methyl-2-(1-methyl-1H-imidazol-4-yl)quinolin-6-yl)acetic acid]: the EC50 under setting [1] stood at 78 nM.

The compound `Cc1cc2nc(-c3cn[nH]c3)ccc2c(-c2ccc3c4c(ccnc24)CCO3)c1[C@H](OC(C)(C)C)C(=O)O` (atropisomer, axis not shown) [Compound 78, (S)-2-tert-Butoxy-2-((R)-5-(2,3-dihydropyrano[4,3,2-de]quinolin-7-yl)-7-methyl-2-(1H-pyrazol-4-yl)quinolin-6-yl)acetic acid] gave a concentration giving a half-maximal response (EC50) under setting [1] of 163 nM.

For `Cc1cc2ncccc2c(-c2ccc(Cl)cc2)c1[C@H](OC(C)(C)C)C(=O)O` [Compound 3L, (S)-2-tert-butoxy-2-(5-(4-chlorophenyl)-7-methylquinolin-6-yl)acetic acid], under setting [1], the EC50 turned out to be 1060 nM.

`Cc1ccc2c(-c3ccc4c5c(cccc35)CCO4)c([C@H](OC(C)(C)C)C(=O)O)c(C)cc2n1` (single isomer, unassigned) [Compound 102B] returned a 50% effective concentration (EC50) of 110 nM.

For the compound `Cc1cc2nc(-c3cn(C)cn3)ccc2c(-c2ccc3c4c(ccnc24)CCO3)c1[C@H](OC(C)(C)C)C(=O)O` (atropisomer, axis not shown) [Compound 85, (S)-2-tert-butoxy-2-((R)-5-(2,3-dihydropyrano[4,3,2-de]quinolin-7-yl)-7-methyl-2-(1-methyl-1H-imidazol-4-yl)quinolin-6-yl)acetic acid], the half-maximal effective concentration (EC50) under setting [1] worked out at 131 nM.

In the case of `Cc1cc2nc(C(=O)O)ccc2c(-c2ccc(Cl)cc2)c1[C@H](OC(C)(C)C)C(=O)O` [Compound 24, (S)-6-(tert-Butoxy(carboxy)methyl)-5-(4-chlorophenyl)-7-methylquinoline-2-carboxylic acid], the EC50 under setting [1] came to 29800 nM.

With `Cc1cc2nc(N3CCCC3)ccc2c(-c2ccc3c4c(ccnc24)CCO3)c1[C@H](OC(C)(C)C)C(=O)O` [Compound 94, (S)-2-tert-butoxy-2-((R)-5-(2,3-dihydropyrano[4,3,2-de]quinolin-7-yl)-7-methyl-2-(pyrrolidin-1-yl)quinolin-6-yl)acetic acid], under setting [1], the EC50 amounted to 149 nM.

`Cc1cc2nc(-c3cccnc3)ccc2c(-c2ccc(Cl)cc2)c1[C@H](OC(C)(C)C)C(=O)O` [Compound 74, (S)-2-tert-butoxy-2-(5-(4-chlorophenyl)-7-methyl-2-(pyridin-3-yl)quinolin-6-yl)acetic acid] yielded a concentration for a half-maximal effect (EC50) under setting [1] of 92 nM.

With `Cc1cc2nc(N3CCOCC3)ccc2c(-c2ccc(Cl)cc2)c1[C@H](OC(C)(C)C)C(=O)O` [Compound 29, (S)-2-tert-Butoxy-2-(5-(4-chlorophenyl)-7-methyl-2-morpholinoquinolin-6-yl)acetic acid], under setting [1], the EC50 was determined as 939 nM.

In turn, `CCC(C)c1ccc2c(-c3ccc4c5c(ccnc35)CCO4)c([C@H](OC(C)(C)C)C(=O)O)c(C)cc2n1` (stereo partly drawn) [Compound 49, (2S)-2-tert-Butoxy-2-((5R)-2-sec-butyl-5-(2,3-dihydropyrano[4,3,2-de]quinolin-7-yl)-7-methylquinolin-6-yl)acetic acid] showed a 50% effective concentration (EC50) under setting [1] of 27 nM.
